In patent US6353120B2, “Process for the preparation of a paclitaxel C-4 methyl carbonate analog” (Bristol-Myers Squibb Company, priority 1999, dated 2002):

Columns and labels:
[1] = system: L2987 human lung carcinoma xenograft; experiment: distal site tumor model, L2987 human lung carcinoma xenograft; type: in vivo
[2] = system: HOC79, a clinically derived Taxol unresponsive ovarian carcinoma xenograft; experiment: distal site tumor model, HOC79 ovarian carcinoma xenograft; type: in vivo
[3] = system: M109 murine lung carcinoma; experiment: distal site tumor model, M109 murine lung carcinoma; type: in vivo
tubulin = tubulin polymerization assay; type: biochemical
[4] = system: HCT/pk human colon carcinoma xenograft (multidrug resistant tumor model); experiment: distal site tumor model, HCT/pk human colon carcinoma xenograft; type: in vivo

Substance: C-4 methylcarbonate analog of paclitaxel [Compound I]
- antitumor activity compared with paclitaxel [1]: superior to paclitaxel
- antitumor activity compared with paclitaxel [2]: superior to paclitaxel
- antitumor activity compared with paclitaxel [3]: superior to paclitaxel
- potency in tubulin polymerization relative to paclitaxel (tubulin): about twice as potent as paclitaxel
- antitumor activity compared with paclitaxel [4]: superior to paclitaxel
